Experiment [1] has as its system LLC cells. The experiment can be described thus: LLC lung cancer mouse tumor model resistant to immunotherapy. The format is in vivo, C57BL/6 mice. Conditions: for tumor growth: 300 μg oleuropein i.p. every other day for eight days. The protocol: (§1) C57BL/6 female mice were subcutaneously (s.c) injected with […] LLC cells or 0.5×10^6 MC38 cells per animal. When tumor growth reached an average diameter of 3.5 mm (day 0), mice received 100 μg of anti-PD-1 mAb (RPMI-14, BioXCell) intraperitoneally (i.p) at days 0, 5, and 13. Control mice received the same volume of saline. For oleuropein, mice received 300 μg oleuropein at days-1, 2, 4, 6, and 8. As negative control, the same volume of saline was injected.
(§2) The efficacy of all treatments was evaluated every two days by measuring two perpendicular tumor measurements. The size was calculated using the formula: Size=Length x Width. Mice were humanely sacrificed when tumor size reached ~150 mm^2, or when tumor ulceration or evident discomfort were observed. For rechallenge experiments in the MC38 model, mice that rejected tumors were injected s.c. with 5×10^5 MC38 cells in the left flank three months after the first tumor inoculation. Naïve mice were included as controls and development of tumors was evaluated for two months.
(§3) Tumor measurements of in vivo experiments are represented as tumor diameter (mm^2) and plotted either as individual data points for one individual mouse or as mean±SD as indicated in the figure legends. Statistical analysis was performed using one way ANOVA test followed by a Sidak's multiple comparison test at 0.05 level of significance. For in vivo experiments, to compare multiple experimental groups, one-way ANOVA test and Tukey's multiple comparison test were used. Two-tailed Student's t test was applied to compare two experimental groups. Survival of tumor-bearing mice is represented by Kaplan-Meier plots and analyzed by log-rank test. The p values <0.05 were considered statistically significant.
To test antitumor capacities in vivo, LLC cells were implanted subcutaneously into groups of mice and tumors were allowed to grow to an average diameter of approximately […]. This model was chosen because LCC cells are poorly immunogenic and notoriously refractory to PD-L1/PD-1 blockade. Oleuropein was then administered intraperitoneally every other day for eight days.
To address whether oleuropein could be combined with anti-PD1 immunotherapy to treat LCC-derived tumors, anti-PD1 mAb was systemically administered in combination with intraperitoneal injection of oleuropein. As controls, groups of mice treated with each of the agents singly and saline-treated groups were included.

The subject of experiment [2] is MC38 cells. Nature of the experiment: MC38 colorectal cancer mouse tumor model, with rechallenge. Conditions: MC38 s.c. It counts as in vivo, C57BL/6 mice. As for the experimental part: as §1, §2, §3
The efficacy of oleuropein and oleuropein/PD-1 blockade combinations were also tested in a colorectal cancer model. To this end, MC38 cells were subcutaneously implanted in mice and allowed to grow until tumors reached a diameter of about […]. Then, oleuropein was administered intraperitoneally one day prior to anti-PD1 mAb injection. […]

The mark [3] stands for this setting: LLC s.c., oleuropein 300 μg i.p. alone or with anti-PD-1 mAb 100 μg i.p.

Entries after “also recorded” stand apart in the source; their conditions may differ.

Take `C/C=C1/[C@H](O[C@@H]2O[C@H](CO)[C@@H](O)[C@H](O)[C@H]2O)OC=C(C(=O)OC)[C@H]1CC(=O)OCCc1ccc(O)c(O)c1` [oleuropein]: the tumor growth result in experiment [1] (LLC s.c.) is reported as “significantly delayed tumor growth”; in experiment [1] (LLC s.c., listed as Oleuropein) it was “delayed tumor growth”; in experiment [2] (oleuropein 300 μg i.p. or anti-PD-1 mAb 100 μg i.p.) it was “significantly delayed the growth of MC38 tumors”. Moreover, the “increased survival, time” value in experiment [1] (setting [3]) is “up to 20 days”. The survival result in experiment [1] (setting [3]) was “significant increase in long-term survival”; in experiment [1] (LLC s.c., oleuropein 300 μg i.p. alone or with anti-PD-1 mAb 100 μg i.p., listed as Oleuropein), “significantly increased survival”; in experiment [2] (oleuropein 300 μg i.p. and/or anti-PD-1 mAb 100 μg i.p.) it was “significant increase in survival”. The “mice responding to the treatment” value in experiment [1] (LLC s.c., oleuropein i.p.) is on record as “most of the mice responding to the treatment”. Further, the “improvement of aPD-1 therapies” value in experiment [1] (tumor model intrinsically resistant to PD-1 blockade) is “improved aPD-1 therapies in a tumor model intrinsically resistant to PD-1 blockade; also recorded: improved aPD-1 and anti-LAG-3 therapies”. The cure rate in experiment [2] (oleuropein 300 μg i.p.) is on record as 16%.

These data come from patent US20260364101A1, “OLEUROPEIN IN THE MANAGEMENT OF CANCER” (FUNDACIÓN MIGUEL SERVET, priority 2023, published 2026).
